Data on 6 compounds can be found in patent EP0271271B1, “Pharmaceutical preparations” (BEECHAM GROUP PLC, priority 1986, dated 1988).

Each structure is given as a SMILES string.

The test system of this experiment is conscious male spontaneously hypertensive rats (SHR). The experiment is described as follows: Systolic blood pressure by inflatable tail cuff in conscious spontaneously hypertensive rats. It counts as in vivo. The procedure:
Potentiation of the anti-hypertensive response to Compounds of formula (I) has been observed in conscious male spontaneously hypertensive rats (SHR) when the compounds were combined with the angiotensin I converting enzyme inhibitor enalapril. For the purpose of the experiment 36 rats were allotted at random to 4 groups, each of 9 rats. Systolic blood pressure (SBP) was measured non-invasively using an inflatable tail cuff technique as described in the aforementioned European Patent references. The protocol of the experiment was as follows: [table] […] The results were as shown in Table I. The protocol of the experiment for pinacidil was as follows: [table] […]

In the case of `CC1(C)Oc2ccc(C#N)cc2[C@@H](N2CCCC2=O)[C@@H]1O` (relative stereo) [Compound 1, 6-cyano-3,4-dihydro-2,2-dimethyl-trans-4-(2-oxo-1-pyrrolidinyl)-2H-benzo[b]pyran-3-ol], the “% change (± sem) of SBP” value is, setting by setting: (Group 3: vehicle at 0 h, Compound 1 0.3 mg/kg po at 0.75 h, time 0.75 h (time of compound dosing), initial SBP 262±3 mmHg) -2±2%; (Group 3: vehicle at 0 h, Compound 1 0.3 mg/kg po at 0.75 h, time 1.75 h, initial SBP 262±3 mmHg) -43±2%; (Group 3: vehicle at 0 h, Compound 1 0.3 mg/kg po at 0.75 h, time 2.75 h, initial SBP 262±3 mmHg) -21±2%; (Group 3: vehicle at 0 h, Compound 1 0.3 mg/kg po at 0.75 h, time 4.75 h, initial SBP 262±3 mmHg) -15±3%.
Take `CC1(C)Oc2ccncc2[C@@H](N2CCCC2=O)[C@@H]1O` (relative stereo) [Compound 2, trans-3,4-dihydro-2,2-dimethyl-4-(2-oxopyrrolidin-1-yl)-2H-pyrano[3,2-c]pyridin-3-ol]: the “SBP change (quantity not headed in table; as % change of Table I)” value is recorded as 1±2 (Compound 2 0.6 mg/kg po alone, time 0.75, time-0 value 244±6); -20±2 (Compound 2 0.6 mg/kg po alone, time 1.75, time-0 value 244±6); -12±3 (Compound 2 0.6 mg/kg po alone, time 2.75, time-0 value 244±6); -11±2 (Compound 2 0.6 mg/kg po alone, time 4.75, time-0 value 244±6).
For the compound `CN1CCCN(C2c3cc(C#N)ccc3OC(C)(C)C2O)C1=O` (stereo not drawn) [Compound 3, 6-cyano-3,4-dihydro-2,2-dimethyl-trans-4-(N-3-methyltetrahydro-2-pyrimidone)-2H-benzo[b]pyran-3-ol], the “SBP change (quantity not headed in table; as % change of Table I)” value was 0±3 (Compound 3 2.0 mg/kg po alone, time 0.75, time-0 value 253±6); -20±3 (Compound 3 2.0 mg/kg po alone, time 1.75, time-0 value 253±6); -22±3 (Compound 3 2.0 mg/kg po alone, time 2.75, time-0 value 253±6); -21±3 (Compound 3 2.0 mg/kg po alone, time 4.75, time-0 value 253±6).
`CC(=O)NC1c2cc(C#N)ccc2OC(C)(C)C1O` (stereo not drawn) [Compound 4, trans-4-N-acetylamino-6-cyano-3,4-dihydro-2,2-dimethyl-2H-benzo[b]pyran-3-ol]: the “SBP change (quantity not headed in table; as % change of Table I)” value reads like this: (Compound 4 0.15 mg/kg po alone, time 0.75, time-0 value 281±5) 0±2; (Compound 4 0.15 mg/kg po alone, time 1.75, time-0 value 281±5) -26±4; (Compound 4 0.15 mg/kg po alone, time 2.75, time-0 value 281±5) -23±4; (Compound 4 0.15 mg/kg po alone, time 4.75, time-0 value 281±5) -13±2.
Consider `CCOC(=O)[C@H](CCc1ccccc1)N[C@@H](C)C(=O)N1CCC[C@H]1C(=O)O` [Enalapril], for which the “SBP change (quantity not headed in table; as % change of Table I)” value (Compound 2 experiment: Compound (A) 3 mg/kg po alone, time 0.75, time-0 value 247±3) is recorded as -9±1; the “SBP change (quantity not headed in table; as % change of Table I)” value (Compound 2 experiment: Compound (A) 3 mg/kg po alone, time 1.75, time-0 value 247±3) was -22±2; the “SBP change (quantity not headed in table; as % change of Table I)” value (Compound 2 experiment: Compound (A) 3 mg/kg po alone, time 2.75, time-0 value 247±3) is given as -14±3; the “SBP change (quantity not headed in table; as % change of Table I)” value (Compound 2 experiment: Compound (A) 3 mg/kg po alone, time 4.75, time-0 value 247±3) was -16±2; the “SBP change (quantity not headed in table; as % change of Table I)” value (Compound 3 experiment: Compound (A) 3 mg/kg po alone, time 0.75, time-0 value 254±4) was -8±2; the “SBP change (quantity not headed in table; as % change of Table I)” value (Compound 3 experiment: Compound (A) 3 mg/kg po alone, time 1.75, time-0 value 254±4) is reported as -10±3. Further, the “SBP change (quantity not headed in table; as % change of Table I)” value reads like this: (Compound 3 experiment: Compound (A) 3 mg/kg po alone, time 2.75, time-0 value 254±4) -12±4; (Compound 3 experiment: Compound (A) 3 mg/kg po alone, time 4.75, time-0 value 254±4) -21±3; (Compound 4 experiment: Compound (A) 3 mg/kg po alone, time 0.75, time-0 value 280±5) -4±2; (Compound 4 experiment: Compound (A) 3 mg/kg po alone, time 1.75, time-0 value 280±5) -9±2; (Compound 4 experiment: Compound (A) 3 mg/kg po alone, time 2.75, time-0 value 280±5) -12±3; (Compound 4 experiment: Compound (A) 3 mg/kg po alone, time 4.75, time-0 value 280±5) -14±2. The “% change (± sem) of SBP” value (Group 2: enalapril 3 mg/kg po at 0 h, vehicle at 0.75 h, time 0.75 h, initial SBP 257±3 mmHg) is recorded as -8±2%; the “% change (± sem) of SBP” value (Group 2: enalapril 3 mg/kg po at 0 h, vehicle at 0.75 h, time 1.75 h, initial SBP 257±3 mmHg) is given as -11±4%; the “% change (± sem) of SBP” value (Group 2: enalapril 3 mg/kg po at 0 h, vehicle at 0.75 h, time 2.75 h, initial SBP 257±3 mmHg) is -15±2%; the “% change (± sem) of SBP” value (Group 2: enalapril 3 mg/kg po at 0 h, vehicle at 0.75 h, time 4.75 h, initial SBP 257±3 mmHg, n=7) is on record as -17±2 (n=7) %. In addition, the “% change (± s.e.m.) of SBP” value is, setting by setting: (Pinacidil experiment, Group 2: enalapril 3 mg/kg po at 0 h, vehicle at 0.75 h, time 0.75 h, initial SBP 274±6 mmHg) -4±1%; (Pinacidil experiment, Group 2: enalapril 3 mg/kg po at 0 h, vehicle at 0.75 h, time 1.75 h, initial SBP 274±6 mmHg) -14±3%; (Pinacidil experiment, Group 2: enalapril 3 mg/kg po at 0 h, vehicle at 0.75 h, time 2.75 h, initial SBP 274±6 mmHg) -16±3%; (Pinacidil experiment, Group 2: enalapril 3 mg/kg po at 0 h, vehicle at 0.75 h, time 4.75 h, initial SBP 274±6 mmHg, n=8) -17±3(n=8) %.
As for `CC(N/C(=N\C#N)Nc1ccncc1)C(C)(C)C` (stereo not shown) [Pinacidil, Nʺ-Cyano-N-4-pyridyl-Nʹ-1,2,2-trimethylpropylguanidine], the “% change (± s.e.m.) of SBP” value (Group 3: vehicle at 0 h, pinacidil 1 mg/kg po at 0.75 h, time 0.75 h (time of pinacidil dosing), initial SBP 269±4 mmHg) is “+4±1%”; the “% change (± s.e.m.) of SBP” value (Group 3: vehicle at 0 h, pinacidil 1 mg/kg po at 0.75 h, time 1.75 h, initial SBP 269±4 mmHg, n=8) was -33±5(n=8) %; the “% change (± s.e.m.) of SBP” value (Group 3: vehicle at 0 h, pinacidil 1 mg/kg po at 0.75 h, time 2.75 h, initial SBP 269±4 mmHg) is recorded as -19±3%; the “% change (± s.e.m.) of SBP” value (Group 3: vehicle at 0 h, pinacidil 1 mg/kg po at 0.75 h, time 4.75 h, initial SBP 269±4 mmHg) is on record as -9±3%.
